Drawing on US8680159B2, “Bradykinin 1 receptor modulating compounds” (Gruenenthal GmbH, priority 2010, dated 2014), this text covers inhibition for 16 compounds.

The target of test [1] is T1, human B1R receptor (CHO K1 cells stably transfected with the human B1R gene) (Homo sapiens, UniProt P46663).
T1 construct: expressed in transfected cells; host or cells: CHO K1 cells (Chinese hamster ovary), stably transfected
T1 sequence (P46663 1-353): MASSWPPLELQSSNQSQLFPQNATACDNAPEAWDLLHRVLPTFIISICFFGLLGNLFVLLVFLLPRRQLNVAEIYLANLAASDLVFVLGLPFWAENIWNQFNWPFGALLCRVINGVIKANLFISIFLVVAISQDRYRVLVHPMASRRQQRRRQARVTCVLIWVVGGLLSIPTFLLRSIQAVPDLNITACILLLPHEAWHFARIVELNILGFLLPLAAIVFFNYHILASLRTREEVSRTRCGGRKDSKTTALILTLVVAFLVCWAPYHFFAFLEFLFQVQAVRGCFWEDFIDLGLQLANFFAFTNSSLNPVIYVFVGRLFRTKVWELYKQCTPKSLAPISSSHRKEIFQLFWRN
In words: Functional study on the bradykinin receptor 1 (B1R), Ca2+ fluorescence (Fluo-4) FLIPR/Novostar assay, hB1R cells. It counts as cell-based. Particulars: CHO-K1, read-out: % inhibition (human B1R) at 10 μM. The essentials: (§1)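 Stably transfected CHO K1 cells carrying human or rat B1R were Fluo-4 loaded and Ca2+ fluorescence read by FLIPR or Novostar. Compounds were added first at 10 μM for % activation, then the EC80 agonist was applied after 6-20 min (human: Lys-Des-Arg9-bradykinin; rat: Des-Arg9-bradykinin). % inhibition is relative to maximum achievable inhibition, and IC50 comes from concentration series.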

Test [2] deals with T2, B1R receptor of the rat (CHO K1 cells stably transfected with the B1R gene of the rat) (Rattus norvegicus, UniProt P97583).
T2 construct: expressed in transfected cells; host or cells: CHO K1 cells (Chinese hamster ovary), stably transfected
T2 sequence (P97583 1-337): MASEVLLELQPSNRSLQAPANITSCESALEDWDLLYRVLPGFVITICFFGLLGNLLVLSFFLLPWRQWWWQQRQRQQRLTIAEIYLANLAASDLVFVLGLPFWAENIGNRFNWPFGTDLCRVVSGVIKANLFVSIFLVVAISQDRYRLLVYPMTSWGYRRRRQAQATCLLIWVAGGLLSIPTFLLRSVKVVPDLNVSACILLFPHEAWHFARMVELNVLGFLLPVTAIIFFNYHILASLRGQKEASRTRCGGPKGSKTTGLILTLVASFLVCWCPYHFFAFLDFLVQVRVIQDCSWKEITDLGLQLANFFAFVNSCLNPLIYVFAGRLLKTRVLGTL
Nature of the test: Functional study on the bradykinin receptor 1 (B1R), Ca2+ fluorescence (Fluo-4) FLIPR/Novostar assay, rB1R cells. The following applies: CHO-K1, 10 μM, read-out: % inhibition (rat B1R) at 10 μM. The test is classed as cell-based. The essentials: as §1

In the case of `CN(C)c1nccc(N2CCC(N(C)C(=O)c3ccc4c(c3)[C@H](NC(=O)c3ccccc3Cl)CC4)CC2)n1` [Example H-118, (3R)-3-[(2-Chloro-benzoyl)amino]-N-[1-(2-dimethylamino-pyrimidin-4-yl)-piperidin-4-yl]-N-methyl-2,3-dihydro-1H-indene-5-carboxylic acid amide], the inhibition at 10 µM was 100% in test [1] and 104% in test [2].

Consider `CC(C)CC(=O)N(C(C)C)[C@@H]1CCc2ccc(C(=O)N(C)C3CCN(c4ccnc(N(C)C)c4)CC3)cc21` [Example H-119, (3R)-N-[1-(2-Dimethylamino-pyridin-4-yl)-pipendin-4-yl]-3-[isopropyl-(3-methyl-butanoyl)-amino]-N-methyl-2,3-dihydro-1H-indene-5-carboxylic acid amide], for which the figures for the inhibition at 10 µM in test [1] and in test [2] were 91% and 52%, respectively.

As to `CC(C)CC(=O)N(C(C)C)[C@@H]1CCc2ccc(C(=O)N(C)C3CCN(c4ccnc(N(C)C)n4)CC3)cc21` [Example H-120, (3R)-N-[1-(2-Dimethylamino-pyrimidin-4-yl)-pipendin-4-yl]-3-[isopropyl-(3-methyl-butanoyl)-amino]-N-methyl-2,3-dihydro-1H-indene-5-carboxylic acid amide], the inhibition at 10 µM is 98% in test [1] and 78% in test [2].

Consider `Cc1nccc(N2CCC(N(C)C(=O)c3ccc4c(c3)[C@H](NC(=O)c3ccccc3Cl)CC4)CC2)n1` [Example H-122, (3R)-3-[(2-Chloro-benzoyl)amino]-N-methyl-N-[1-(2-methyl-pyrimidin-4-yl)-piperidin-4-yl]-2,3-dihydro-1H-indene-5-carboxylic acid amide], for which the inhibition at 10 µM in test [1] stood at 100%; in test [2], 103%.

Consider `CN(C(=O)c1ccc2c(c1)[C@H](NC(=O)c1ccccc1Cl)CC2)C1CCN(c2ccnc(C#N)c2)CC1` [Example H-123, (3R)-3-[(2-Chloro-benzoyl)amino]-N-[1-(2-cyano-pyridin-4-yl)-piperidin-4-yl]-N-methyl-2,3-dihydro-1H-indene-5-carboxylic acid amide], for which the figures for the inhibition at 10 µM in test [1] and in test [2] were 97% and 107%, respectively.

With `CN(C(=O)c1ccc2c(c1)[C@H](NC(=O)c1ccccc1Cl)CC2)C1CCN(c2ccnc(N3CCCC3)c2)CC1` [Example H-124, (3R)-3-[(2-Chloro-benzoyl)amino]-N-methyl-N-[1-(2-pyrrolidin-1-yl-pyridin-4-yl)-piperidin-4-yl]-2,3-dihydro-1H-indene-5-carboxylic acid amide], the values for the inhibition at 10 µM in test [1] and in test [2] were 100% and 108%, respectively.

`Cc1nsc(N2CCC(N(C)C(=O)c3ccc4c(c3)[C@H](NC(=O)c3ccccc3Cl)CC4)CC2)n1` [Example H-125, (3R)-3-[(2-Chloro-benzoyl)amino]-N-methyl-N-[1-(3-methyl-[1,2,4]thiadiazol-5-yl)-piperidin-4-yl]-2,3-dihydro-1H-indene-5-carboxylic acid amide]: the results for the inhibition at 10 µM in test [1] and in test [2] were 70% and 104%, respectively.

Regarding `COc1nc(C)cc(N2CCC(N(C)C(=O)c3ccc4c(c3)[C@H](NC(=O)c3ccccc3Cl)CC4)CC2)n1` [Example H-126, (3R)-3-[(2-Chloro-benzoyl)amino]-N-[1-(2-methoxy-6-methyl-pyrimidin-4-yl)-piperidin-4-yl]-N-methyl-2,3-dihydro-1H-indene-5-carboxylic acid amide], the inhibition at 10 µM in test [1] worked out at 100%; in test [2] it was 104%.

Consider `CN(C(=O)c1ccc2c(c1)[C@H](NC(=O)c1ccccc1Cl)CC2)C1CCN(c2ncnc3ccccc23)CC1` [Example H-127, (3R)-3-[(2-Chloro-benzoyl)amino]-N-methyl-N-(1-quinazolin-4-yl-piperidin-4-yl)-2,3-dihydro-1H-indene-5-carboxylic acid amide], for which the inhibition at 10 µM in test [1] worked out at 96%; in test [2], 91%.

In the case of `Cc1cc(N2CCC(N(C)C(=O)c3ccc4c(c3)[C@H](NC(=O)c3ccccc3F)CC4)CC2)nc(C)n1` [Example H-128, (3R)-N-[1-(2,6-Dimethyl-pyrimidin-4-yl)-piperidin-4-yl]-3-[(2-fluoro-benzoyl)amino]-N-methyl-2,3-dihydro-1H-indene-5-carboxylic acid amide], the inhibition at 10 µM in test [1] is 99%; in test [2], 100%.

As for `Cc1cc(N2CCC(N(C)C(=O)c3ccc4c(c3)[C@H](NC(=O)c3cccc(F)c3Cl)CC4)CC2)nc(C)n1` [Example H-129, (3R)-3-[(2-Chloro-3-fluoro-benzoyl)amino]-N-[1-(2,6-dimethyl-pyrimidin-4-yl)-piperidin-4-yl]-N-methyl-2,3-dihydro-1H-indene-5-carboxylic acid amide], the inhibition at 10 µM was determined as 100% in test [1] and 98% in test [2].

For `Cc1cc(N2CCC(N(C)C(=O)c3ccc4c(c3)[C@H](N3Cc5cccc(Cl)c5C3=O)CC4)CC2)nc(C)n1` [Example H-130, (3R)-3-(4-Chloro-3-oxo-1,2-dihydro-isoindol-2-yl)-N-[1-(2,6-dimethyl-pyrimidin-4-yl)-piperidin-4-yl]-N-methyl-2,3-dihydro-1H-indene-5-carboxylic acid amide], the inhibition at 10 µM is 99% in test [1] and 101% in test [2].

Turning to `COc1c(C)cnc(CN2CCC(N(C)C(=O)c3ccc4c(c3)[C@H](NC(=O)c3ccccc3Cl)CC4)CC2)c1C` [Example H-131, (3R)-3-[(2-Chloro-benzoyl)amino]-N-[1-[(4-methoxy-3,5-dimethyl-pyridin-2-yl)-methyl]-piperidin-4-yl]-N-methyl-2,3-dihydro-1H-indene-5-carboxylic acid amide], the inhibition at 10 µM turned out to be 55% in test [1] and 77% in test [2].

Regarding `Cc1cc(N2CCC(N(C)C(=O)c3ccc4c(c3)[C@H](NC(=O)c3ccccc3C(F)(F)F)CC4)CC2)nc(C)n1` [Example H-132, (3R)-N-[1-(2,6-Dimethyl-pyrimidin-4-yl)-piperidin-4-yl]-N-methyl-3-[[2-(trifluoromethyl)-benzoyl]amino]-2,3-dihydro-1H-indene-5-carboxylic acid amide], the inhibition at 10 µM in test [1] and in test [2] was 99% in each case.

Turning to `Cc1cc(N2CCC(N(C)C(=O)c3ccc4c(c3)[C@H](NC(=O)c3cc(F)ccc3Cl)CC4)CC2)nc(C)n1` [Example H-133, (3R)-3-[(2-Chloro-5-fluoro-benzoyl)amino]-N-[1-(2,6-dimethyl-pyrimidin-4-yl)-piperidin-4-yl]-N-methyl-2,3-dihydro-1H-indene-5-carboxylic acid amide], the inhibition at 10 µM in test [1] is 99%; in test [2], 100%.

Take `Cc1cc(CN2CCC(N(C)C(=O)c3ccc4c(c3)[C@H](NC(=O)c3ccccc3Cl)CC4)CC2)on1` [Example H-134, (3R)-3-[(2-Chloro-benzoyl)amino] N-methyl-N-[1-[(3-methyl-isoxazol-5-yl)-methyl]-piperidin-4-yl]-2,3-dihydro-1H-indene-5-carboxylic acid amide]: the inhibition at 10 µM in test [1] was determined as 8%; in test [2], 55%.
